Assay results published in PMC11550483 (2024).

Target: SARS2 M^pro (Severe acute respiratory syndrome coronavirus 2, UniProt P0DTD1, P3395H)
Format: biochemical, SARS-CoV-2

SMILES	% inhibition (20 µM) biochemical [%]
O=C(COc1ccccc1)Nc1scc(-c2ccccc2)c1C(=O)NCc1ccco1 [MWAC-0001777, O=C(COc1ccccc1)Nc2scc(c3ccccc3)c2C(=O)NCc4occc4]	3.67
Cc1c(C(=O)N2CCCCC2C)sc2nc(-c3ccc(F)cc3)cn12 (stereo not drawn) [MWAC-0001747, CC1CCCCN1C(=O)c2sc3nc(cn3c2C)c4ccc(F)cc4]	5.44
Nc1c(C(=O)c2ccccc2)sc2nc(C3CC3)cc(-c3ccco3)c12 [MWAC-0001875, Nc1c(sc2nc(cc(c3occc3)c12)C4CC4)C(=O)c5ccccc5]	0
CCOc1ccccc1N1C(=O)CC(Sc2nnc(-c3ccccc3)[nH]2)C1=O (stereo not drawn) [MWAC-0001798, CCOc1ccccc1N2C(=O)CC(Sc3nnc([nH]3)c4ccccc4)C2=O]	2.63
Cc1ccc(C(NC(=O)CCl)c2cccs2)cc1 (stereo not drawn) [MWAC-0001859, Cc1ccc(cc1)C(NC(=O)CCl)c2cccs2]	60
O=C(Nc1nccs1)c1ccc(F)cc1[N+](=O)[O-] [MWAC-0001876, [O-][N+](=O)c1cc(F)ccc1C(=O)Nc2nccs2]	0
O=C1OC(NC(=O)c2ccccc2)C(NC(=O)c2ccccc2)=C1Cl (stereo not drawn) [MWAC-0001833, ClC1=C(NC(=O)c2ccccc2)C(NC(=O)c3ccccc3)OC1=O]	4
Cc1cc(Br)cc2c1N(C)C(=O)C2(O)CC(=O)c1ccc(Cl)cc1 (stereo not drawn) [MWAC-0001785, CN1C(=O)C(O)(CC(=O)c2ccc(Cl)cc2)c3cc(Br)cc(C)c13]	4.25
CCCCN1C(=O)C(O)(CC(=O)c2cccc(OC)c2)c2cc(Br)ccc21 (stereo not drawn) [MWAC-0001744, CCCCN1C(=O)C(O)(CC(=O)c2cccc(OC)c2)c3cc(Br)ccc13]	10
C#CCN1C(=O)C(O)(CC(=O)c2ccc(F)cc2)c2ccccc21 (stereo not drawn) [MWAC-0001730, OC1(CC(=O)c2ccc(F)cc2)C(=O)N(CC#C)c3ccccc13]	8
O=C(CCC(=O)Nc1ccc2c(c1)OCCO2)Nc1ccc(OCc2ccccc2)cc1 [MWAC-0001840, O=C(CCC(=O)Nc1ccc2OCCOc2c1)Nc3ccc(OCc4ccccc4)cc3]	3
N#Cc1ccccc1CN1C(=O)C(=O)c2ccccc21 [MWAC-0001764, O=C1N(Cc2ccccc2C#N)c3ccccc3C1=O]	7
CCOc1ccc(-c2nc(CSc3nnc(N)[nH]3)cs2)cc1 [MWAC-0001853, CCOc1ccc(cc1)c2nc(CSc3nnc(N)[nH]3)cs2]	1.25
CCOc1ccc2nc(NC(=O)C3CC3)sc2c1 [MWAC-0001795, CCOc1ccc2nc(NC(=O)C3CC3)sc2c1]	8
CCOc1ccc(/C=C2\SC(Nc3ccccc3O)=NC2=O)cc1 [MWAC-0001811, CCOc1ccc(\C=C\2/SC(=NC2=O)Nc3ccccc3O)cc1]	5.42
COc1ccc(C2=NN3C(C2)c2ccccc2OC32C(=O)Nc3ccccc32)cc1OC (stereo not drawn) [MWAC-0001819, COc1ccc(cc1OC)C2=NN3C(C2)c4ccccc4OC35C(=O)Nc6ccccc56]	0.611
CCOC(=O)c1sc(NC(=O)c2sccc2C)cc1C [MWAC-0001852, CCOC(=O)c1sc(NC(=O)c2sccc2C)cc1C]	10
Cc1ccc2nc(N3C(=O)C(O)=C(C(=O)c4ccco4)C3c3ccco3)sc2c1 (stereo not drawn) [MWAC-0001821, Cc1ccc2nc(sc2c1)N3C(C(=C(O)C3=O)C(=O)c4occc4)c5occc5]	16
O=C1CSC(=S)N1Cc1cccnc1 [MWAC-0001797, O=C1CSC(=S)N1Cc2cccnc2]	7
Cc1cccc2c1NC(=O)/C2=C\C(=O)c1cccs1 [MWAC-0001756, Cc1cccc2\C(=C\C(=O)c3cccs3)\C(=O)Nc12]	13
O=C1N(Cc2ccccc2)c2ccccc2C12NNc1ccccc1O2 (stereo not drawn) [MWAC-0001855, O=C1N(Cc2ccccc2)c3ccccc3C14NNc5ccccc5O4]	2.76
Cc1ccc(/C=C/C(=O)Nc2ccccc2Br)o1 [MWAC-0001759, Cc1oc(\C=C\C(=O)Nc2ccccc2Br)cc1]	15
C=CCN1C(=O)C(O)(CC(=O)c2ccc(C)cc2)c2cc(Br)ccc21 (stereo not drawn) [MWAC-0001738, Cc1ccc(cc1)C(=O)CC2(O)C(=O)N(CC=C)c3ccc(Br)cc23]	4.69
Nc1ccc(C(=O)Nc2ccccc2N)cc1 [MWAC-0001836, Nc1ccc(cc1)C(=O)Nc2ccccc2N]	5
COc1ccc(C(CNC(=O)CCl)N2CCCCC2)cc1 (stereo not drawn) [MWAC-0001849, COc1ccc(cc1)C(CNC(=O)CCl)N2CCCCC2]	33
O=S(=O)(O)CCCN1/C(=C/C=C2\CCC(/C=C/c3sc4ccccc4[n+]3CCCS(=O)(=O)O)=C2N(c2ccccc2)c2ccccc2)Sc2ccccc21 [MWAC-0001204, OS(=O)(=O)CCCN1\C(=C\C=C\2/CCC(=C2N(c3ccccc3)c4ccccc4)\C=C\c5sc6ccccc6[n+]5CCCS(=O)(=O)O)\Sc7ccccc17]	8
CCOc1ccc2nc(SC3CC(=O)N(c4ccccc4C(F)(F)F)C3=O)sc2c1 (stereo not drawn) [MWAC-0001714, CCOc1ccc2nc(SC3CC(=O)N(C3=O)c4ccccc4C(F)(F)F)sc2c1]	6

SMILES	% inhibition (20 µM) biochemical [%]
COc1ccc(C(=O)NNC(=O)Cc2ccc(-c3ccccc3)cc2)cc1 [MWAC-0001846, COc1ccc(cc1)C(=O)NNC(=O)Cc2ccc(cc2)c3ccccc3]	0.595
CCOc1ccccc1C1CC(c2ccccc2)Nc2ncnn21 (stereo not drawn) [MWAC-0001745, CCOc1ccccc1C2CC(Nc3ncnn23)c4ccccc4]	5.37
Cc1cc(C)c2oc(-c3ccc(C)c(N)c3)nc2c1 [MWAC-0001715, Cc1cc(C)c2oc(nc2c1)c3ccc(C)c(N)c3]	0
COc1cc(C#N)ccc1OCc1ccc(Cl)cc1 [MWAC-0001772, COc1cc(ccc1OCc2ccc(Cl)cc2)C#N]	0.301
O=C(CN1C(=O)C(=O)N(Cc2ccccc2)C1=O)Nc1cc(Cl)cc(Cl)c1 [MWAC-0001847, Clc1cc(Cl)cc(NC(=O)CN2C(=O)N(Cc3ccccc3)C(=O)C2=O)c1]	0.75
O=C(Nc1ccc(Cl)cc1)N1CCc2ccccc21 [MWAC-0001717, Clc1ccc(NC(=O)N2CCc3ccccc23)cc1]	6
CCOC(=O)/C=C(\C)N1N=C(c2ccccc2)CC1c1ccc(N(C)C)cc1 (stereo not drawn) [MWAC-0001831, CCOC(=O)\C=C(/C)\N1N=C(CC1c2ccc(cc2)N(C)C)c3ccccc3]	5.67
CCOc1ccccc1C1Nc2ccccc2NC2=C1C(=O)CC(c1ccccc1)C2 (stereo not drawn) [MWAC-0001718, CCOc1ccccc1C2Nc3ccccc3NC4=C2C(=O)CC(C4)c5ccccc5]	0
Cc1ccc(Cl)cc1-n1c(SCc2ccccc2Cl)nc2[nH]ncc2c1=O [MWAC-0001740, Cc1ccc(Cl)cc1N2C(=Nc3[nH]ncc3C2=O)SCc4ccccc4Cl]	9
O=C(CCl)Nc1cn(-c2ccccc2)nc1-c1ccc(F)cc1 [MWAC-0001848, Fc1ccc(cc1)c2nn(cc2NC(=O)CCl)c3ccccc3]	13
CC(C)(C)NC(=O)N[C@H](C(=O)N1C[C@H]2[C@@H]([C@H]1C(=O)NC(CC1CCC1)C(=O)C(N)=O)C2(C)C)C(C)(C)C (stereo partly drawn) [Boceprevir, reference compound]	73.0971
COc1ccc(C2=NN3C(C2)c2ccccc2OC3C(C)C)cc1 (stereo not drawn) [MWAC-0001724, COc1ccc(cc1)C2=NN3C(Oc4ccccc4C3C2)C(C)C]	7
Cc1ccc2c(CC(=O)NCc3ccco3)coc2c1C [MWAC-0001762, Cc1ccc2c(CC(=O)NCc3occc3)coc2c1C]	11
COc1ccc(OC)c(C(=O)c2oc3ccccc3c2NC(=O)CCl)c1 [MWAC-0001832, COc1ccc(OC)c(c1)C(=O)c2oc3ccccc3c2NC(=O)CCl]	85
Fc1cccc(/N=c2\oc3ccccc3cc2-c2nc3ccccc3[nH]2)c1 [MWAC-0001716, Fc1cccc(c1)\N=C\2/Oc3ccccc3C=C2c4nc5ccccc5[nH]4]	0
CC(NC(=O)CCl)C1COc2ccccc2O1 (stereo not drawn) [MWAC-0001857, CC(NC(=O)CCl)C1COc2ccccc2O1]	26
Cc1nn(CC(=O)NCc2ccc3c(c2)OCO3)c(=O)c2c1cnn2C(C)(C)C [MWAC-0000539, CC1=NN(CC(=O)NCc2ccc3OCOc3c2)C(=O)c4c1cnn4C(C)(C)C]	19
CSc1cccc(NC(=O)c2cnn3ccccc23)c1 [MWAC-0001883, CSc1cccc(NC(=O)c2cnn3ccccc23)c1]	0
CCCN1C(=O)C2(c3cc(C)ccc31)N1CC3(C)CN2CC(C)(C1)C3=O (stereo not drawn) [MWAC-0001760, CCCN1C(=O)C2(N3CC4(C)CN2CC(C)(C3)C4=O)c5cc(C)ccc15]	7
Cc1ccc(NC(=S)Nc2ccccc2)nc1 [MWAC-0001820, Cc1ccc(NC(=S)Nc2ccccc2)nc1]	2.27
COc1cccc(C(=O)NN2C(=S)N(c3ccccc3)C(=O)C2CC(N)=O)c1 (stereo not drawn) [MWAC-0001743, COc1cccc(c1)C(=O)NN2C(CC(=O)N)C(=O)N(C2=S)c3ccccc3]	6
O=C(CCl)NCCOc1ccccc1 [MWAC-0001864, ClCC(=O)NCCOc1ccccc1]	58
CCOc1ccc(C2NC(=O)c3[nH]nc(-c4cccc(OC)c4)c32)cc1 (stereo not drawn) [MWAC-0001753, CCOc1ccc(cc1)C2NC(=O)c3[nH]nc(c4cccc(OC)c4)c23]	18
CCOC(=O)N1CCN(c2nncc(-c3ccc4ccccc4c3)n2)CC1 [MWAC-0001757, CCOC(=O)N1CCN(CC1)c2nncc(n2)c3ccc4ccccc4c3]	38
CC1=C(C(=O)OC(C)C)C(c2ccc(F)cc2)C2=C(CC(c3cccs3)CC2=O)N1 (stereo not drawn) [MWAC-0001729, CC(C)OC(=O)C1=C(C)NC2=C(C1c3ccc(F)cc3)C(=O)CC(C2)c4cccs4]	0
CCc1ccc(C2CC(c3ccc(OC)c(OC)c3)=NN2C(C)=O)cc1 (stereo not drawn) [MWAC-0001733, CCc1ccc(cc1)C2CC(=NN2C(=O)C)c3ccc(OC)c(OC)c3]	7
CCOc1ccccc1OCCCOc1ccccc1C=O [MWAC-0001794, CCOc1ccccc1OCCCOc2ccccc2C=O]	2.44
